The source of these data is ChEMBL document CHEMBL1140856, “Substituted 1,2,3,4-tetrahydroquinolin-6-yloxypropanes as beta3-adrenergic receptor agonists: design, synthesis, biological evaluation and pharmacophore modeling” (Bioorg Med Chem, 2009).

The target of assay [1] is T1, Beta-3 adrenergic receptor (Homo sapiens, UniProt P13945). The experiment in a line: Displacement of [125I]iodocyanopindolol from human adrenergic beta-3 receptor at 1 uM. In general terms: Displacement assays read how much labelled ligand stays bound in the presence of the test substance.
Target sequence in this assay (P13945 whole entry, looked up): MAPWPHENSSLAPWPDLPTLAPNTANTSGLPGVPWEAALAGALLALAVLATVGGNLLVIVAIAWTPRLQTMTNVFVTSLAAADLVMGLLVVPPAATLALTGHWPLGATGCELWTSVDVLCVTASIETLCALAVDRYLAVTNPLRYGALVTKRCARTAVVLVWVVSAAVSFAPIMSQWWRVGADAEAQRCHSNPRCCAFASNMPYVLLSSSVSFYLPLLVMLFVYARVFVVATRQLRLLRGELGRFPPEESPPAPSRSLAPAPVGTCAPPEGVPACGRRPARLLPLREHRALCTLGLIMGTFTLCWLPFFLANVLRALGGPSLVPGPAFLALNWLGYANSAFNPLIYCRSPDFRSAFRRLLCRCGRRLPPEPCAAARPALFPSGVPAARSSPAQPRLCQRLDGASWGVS
The target in assay [2] is T1, Beta-3 adrenergic receptor. The experiment in a line: Displacement of [125I]iodocyanopindolol from human adrenergic beta-3 receptor at 10 uM.
Target sequence in this assay (P13945 whole entry, looked up): as above
In assay [3] the target is Beta-2 adrenergic receptor (Homo sapiens, UniProt P07550). The experiment in a line: Agonist activity at adrenergic beta-2 receptor. It counts as functional.
Beta-2 adrenergic receptor, sequence (P07550 whole entry): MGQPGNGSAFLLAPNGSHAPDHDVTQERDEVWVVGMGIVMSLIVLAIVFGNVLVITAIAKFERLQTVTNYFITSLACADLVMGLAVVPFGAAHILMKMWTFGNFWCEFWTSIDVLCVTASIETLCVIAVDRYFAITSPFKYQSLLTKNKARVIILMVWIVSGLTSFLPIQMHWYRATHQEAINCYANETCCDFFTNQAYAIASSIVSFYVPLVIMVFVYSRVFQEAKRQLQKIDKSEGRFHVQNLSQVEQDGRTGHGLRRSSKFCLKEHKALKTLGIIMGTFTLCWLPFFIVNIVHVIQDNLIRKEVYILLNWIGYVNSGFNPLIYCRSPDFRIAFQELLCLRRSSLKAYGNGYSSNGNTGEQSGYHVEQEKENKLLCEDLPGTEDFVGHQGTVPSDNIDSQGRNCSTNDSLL
For assay [4], the target named is T1, Beta-3 adrenergic receptor. The experiment in a line: Displacement of [125I]iodocyanopindolol from human adrenergic beta-3 receptor.
Target sequence in this assay (P13945 whole entry): as the sequence (P13945 whole entry, looked up) above
The target of assay [5] is Beta-1 adrenergic receptor (Homo sapiens, UniProt P08588). The experiment in a line: Agonist activity at adrenergic beta-1 receptor. In kind it is functional.
Beta-1 adrenergic receptor, sequence (P08588 whole entry): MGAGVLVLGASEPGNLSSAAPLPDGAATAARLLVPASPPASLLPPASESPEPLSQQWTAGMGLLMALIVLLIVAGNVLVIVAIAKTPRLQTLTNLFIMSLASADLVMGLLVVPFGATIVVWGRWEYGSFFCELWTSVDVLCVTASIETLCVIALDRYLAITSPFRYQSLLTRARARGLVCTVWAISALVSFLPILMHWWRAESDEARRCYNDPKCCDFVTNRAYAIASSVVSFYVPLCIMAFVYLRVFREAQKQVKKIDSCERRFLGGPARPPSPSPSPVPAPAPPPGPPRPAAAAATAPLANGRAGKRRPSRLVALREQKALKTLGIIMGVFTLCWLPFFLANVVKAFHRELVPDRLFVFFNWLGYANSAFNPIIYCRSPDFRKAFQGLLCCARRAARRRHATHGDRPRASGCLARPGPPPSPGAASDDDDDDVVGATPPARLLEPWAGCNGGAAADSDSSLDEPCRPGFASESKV
The nature of assay [6]: Selectivity ratio of EC50 for adrenergic beta-2 receptor to EC50 for human adrenergic beta3 receptor.
Assay [7] in a line: Selectivity ratio of EC50 for adrenergic beta-1 receptor to EC50 for human adrenergic beta-3 receptor.
The target of assay [8] is T1, Beta-3 adrenergic receptor. The experiment in a line: Agonist activity at adrenergic beta-3 receptor in human SK-N-MC cells. It counts as functional, cell-based.
Target sequence in this assay (P13945 whole entry): as the sequence (P13945 whole entry, looked up) above

`CCCNCC(O)COc1ccc2c(c1)CCCN2Cc1ccccc1` (stereo not drawn): the figures for the inhibition in assay [1] and in assay [2] were 19.2% and 66.3%, respectively.

Consider `COc1ccccc1N1CCN(CC(O)COc2ccc3c(c2)CCCN3Cc2ccccc2)CC1` (stereo not drawn), for which the inhibition in assay [1] worked out at 12.2%; in assay [2], 14.5%.

For the compound `CC1CN(c2ccc(Cl)cc2)CCN1CC(O)COc1ccc2c(c1)CCCN2Cc1ccccc1` (stereo not drawn), the inhibition was 3.61% in assay [1] and 0.08% in assay [2].

Regarding `OC(COc1ccc2c(c1)CCCN2Cc1ccccc1)CN1CCN(c2ccccc2)CC1` (stereo not drawn), the inhibition in assay [1] is 45.9%; in assay [2], 52.2%.

In the case of `CCOC(=O)COc1ccc(CC(C)N2CCOC(c3ccccc3)C2)cc1` (stereo not drawn), the inhibition in assay [2] is -1.36%.

On to `CC(Cc1ccc(OCC(=O)O)cc1)N1CCOC(c2ccccc2)C1` (stereo not drawn), for which the inhibition in assay [1] was -9.63%; in assay [2], 9.42%.

On to `CN(Cc1ccccc1)CC(O)COc1ccc2c(c1)CCCN2Cc1ccccc1` (stereo not drawn), for which the inhibition in assay [1] is -4.54%; in assay [2] it was 2.54%.

Consider `OC(COc1ccc2c(c1)CCCN2Cc1ccccc1)CN1CCN(c2ccccn2)CC1` (stereo not drawn), for which the inhibition in assay [1] was determined as 5.32%; in assay [2] it was 12.7%.

As to `COc1ccc(CCNCC(O)COc2ccc3c(c2)CCCN3S(=O)(=O)c2ccccc2)cc1OC` (stereo not drawn), the inhibition in assay [1] was determined as 26.5%; in assay [2], 38.9%.

On to `Cc1ccc(N2CCN(CC(O)COc3ccc4c(c3)CCCN4Cc3ccccc3)C(C)C2)cc1` (stereo not drawn), for which the inhibition came to 3.19% in assay [1] and 11.8% in assay [2].

As for `OC(COc1ccc2c(c1)CCCN2Cc1ccccc1)CN1CCC(O)(c2ccccc2)CC1` (stereo not drawn), the inhibition worked out at 46.4% in assay [1] and 50.5% in assay [2].

For `OC(COc1ccc2c(c1)CCCN2Cc1ccccc1)CN1CCC(Cc2ccccc2)CC1` (stereo not drawn), the inhibition was -2.05% in assay [1] and 23.5% in assay [2].

Regarding `CC(C)NCC(O)COc1ccc2c(c1)CCCN2Cc1ccccc1` (stereo not drawn), the EC50 came to 1.16 µM in assay [3], 2.03 µM in assay [5] and 0.883 µM in assay [8]. The IC50 in assay [4] is 0.59 µM. Besides, the inhibition came out at 59.7% in assay [1] and 83.2% in assay [2]. For the same compound, the figures for the Ratio EC50 in assay [6] and in assay [7] were 1.31 and 2.3, respectively.

Consider `CN1CCN(CC(O)COc2ccc3c(c2)CCCN3Cc2ccccc2)CC1` (stereo not drawn), for which the inhibition in assay [1] was -3.71%; in assay [2], 0.18%.

Regarding `Cc1ccc(CCNCC(O)COc2ccc3c(c2)CCCN3Cc2ccccc2)cc1` (stereo not drawn), the inhibition is 8.17% in assay [1] and 18.1% in assay [2].

`O=[N+]([O-])c1ccc(N2CCN(CC(O)COc3ccc4c(c3)CCCN4Cc3ccccc3)CC2)cc1` (stereo not drawn): the inhibition is 6.08% in assay [1] and 4.13% in assay [2].

On to `CCCCN(CCCC)CC(O)COc1ccc2c(c1)CCCN2Cc1ccccc1` (stereo not drawn), for which the inhibition amounted to 4.09% in assay [1] and 14.7% in assay [2].

For the compound `CC(NCC(O)COc1ccc2c(c1)CCCN2Cc1ccccc1)c1ccccc1` (stereo not drawn), the results for the inhibition in assay [1] and in assay [2] were 7.71% and 27.5%, respectively.

For `COc1ccc(CCN(CC(O)COc2ccc3c(c2)CCCN3)C(=O)OC(C)(C)C)cc1OC` (stereo not drawn), the inhibition in assay [1] was 23.2%; in assay [2] it was 28.1%.

As to `CC(Cc1ccc(O)cc1)N1CCOC(c2ccccc2)C1` (stereo not drawn), the inhibition is 0.34% in assay [1] and 0.24% in assay [2].

In the case of `OC(COc1ccc2c(c1)CCCN2Cc1ccccc1)CN1CCCCC1` (stereo not drawn), the inhibition in assay [1] turned out to be 4.27%; in assay [2] it was 31.4%.

In the case of `CCCNCCCOc1ccc2c(c1)CCCN2Cc1ccccc1`, the values for the inhibition in assay [1] and in assay [2] were 5.62% and 16.2%, respectively.

For `OC(COc1ccc2c(c1)CCCN2Cc1ccccc1)CN1CCN(c2ccccc2F)CC1` (stereo not drawn), the inhibition amounted to 5.5% in assay [1] and 20.4% in assay [2].

`COc1ccc(N2CCN(CCCOc3ccc4c(c3)CCCN4Cc3ccccc3)CC2)cc1`: the inhibition in assay [1] stood at 6.72%; in assay [2], 1.95%.

For `COc1ccc(N2CCN(CC(O)COc3ccc4c(c3)CCCN4Cc3ccccc3)CC2)cc1` (stereo not drawn), the inhibition in assay [1] came to 45.1%; in assay [2], 49.8%.

Take `OC(COc1ccc2c(c1)CCCN2Cc1ccccc1)CN1CCN(Cc2ccccc2)CC1` (stereo not drawn): the figures for the inhibition in assay [1] and in assay [2] were -0.84% and 17.1%, respectively.

As to `OC(COc1ccc2c(c1)CCCN2Cc1ccccc1)CN1CCN(Cc2ccc3c(c2)OCO3)CC1` (stereo not drawn), the inhibition in assay [1] was -5.28%; in assay [2] it was 18.1%.

Take `COc1ccc(CCNCC(O)COc2ccc3c(c2)CCCN3Cc2ccccc2)cc1OC` (stereo not drawn): the IC50 in assay [4] stood at 0.55 µM. Further, the inhibition in assay [1] was 72.8%; in assay [2], 90.6%.

The compound `OC(COc1ccc2c(c1)CCCN2Cc1ccccc1)CN1CCN(c2ccc(F)cc2)CC1` (stereo not drawn) returned an IC50 in assay [4] of 1.76 µM. For the same compound, the figures for the inhibition in assay [1] and in assay [2] were 49.7% and 68.8%, respectively.

As for `COc1ccc(CCNCC(O)COc2ccc3c(c2)CCCN3)cc1OC` (stereo not drawn), the values for the inhibition in assay [1] and in assay [2] were 33.1% and 56.5%, respectively.

Turning to `COc1ccc(CNCC(O)COc2ccc3c(c2)CCCN3Cc2ccccc2)cc1` (stereo not drawn), the inhibition came out at 9.26% in assay [1] and 27.4% in assay [2].

Turning to `Clc1ccc(CCNCCCOc2ccc3c(c2)CCCN3Cc2ccccc2)cc1`, the inhibition in assay [1] came out at 42.9%; in assay [2] it was 58.7%.

As to `OC(COc1ccc2c(c1)CCCN2Cc1ccccc1)CN1CCN(c2cccc(Cl)c2)CC1` (stereo not drawn), the figures for the inhibition in assay [1] and in assay [2] were -2.34% and 11.3%, respectively.

With `CCN(CC)CC(O)COc1ccc2c(c1)CCCN2Cc1ccccc1` (stereo not drawn), the inhibition in assay [1] was 9.18%; in assay [2], 11.2%.

Consider `OC(COc1ccc2c(c1)CCCN2Cc1ccccc1)CN1CCN(c2ccc(Cl)c(Cl)c2)CC1` (stereo not drawn), for which the inhibition in assay [1] was -7.18%; in assay [2] it was 0.28%.

As to `OC(CNCc1ccccc1)COc1ccc2c(c1)CCCN2Cc1ccccc1` (stereo not drawn), the inhibition in assay [1] turned out to be 1.81%; in assay [2], 19%.

Turning to `COc1ccc(CCNCC(O)COc2ccc3c(c2)CCCN3Cc2ccccc2)cc1` (stereo not drawn), the results for the EC50 in assay [3], in assay [5] and in assay [8] were 5.9 µM, 7.28 µM and 4.88 µM, respectively. The same compound gave an IC50 in assay [4] of 1.18 µM. Moreover, the inhibition in assay [1] stood at 56.2%; in assay [2], 76.5%. For the same compound, the Ratio EC50 stood at 1.2 in assay [6] and 1.47 in assay [7].

For `COc1ccc(CCN(CC(O)COc2ccc3c(c2)CCCN3Cc2ccccc2)C(=O)OC(C)(C)C)cc1OC` (stereo not drawn), the inhibition amounted to 37.8% in assay [1] and 46.7% in assay [2].

Consider `CC1CCN(CC(O)COc2ccc3c(c2)CCCN3Cc2ccccc2)CC1` (stereo not drawn), for which the inhibition is -1.79% in assay [1] and 12.8% in assay [2].

As for `OC(CNCCc1ccc(Cl)cc1)COc1ccc2c(c1)CCCN2Cc1ccccc1` (stereo not drawn), the inhibition in assay [1] is 55.8%; in assay [2], 63.1%.

For orientation: inhibition means the change of the read-out against control, counted positive when it falls. The term EC50 denotes the concentration giving half of the maximal effect. In general, IC50 refers to the concentration that inhibits the measured activity by half. Read a low IC50 as higher potency.
